# Results reported in ChEMBL document CHEMBL5241120, “Insights into the medicinal chemistry of heterocycles integrated with a pyrazolo[1,5-a]pyrimidine scaffold” (RSC Med Chem, 2022).
# How the values were obtained:
# Mus musculus [1] = test: Anxiolytic activity in mouse assessed as time spent in light at 1 mg/kg, po; type: functional
# Mus musculus [2] = test: Anxiolytic activity in mouse assessed as transfer number at 1 mg/kg, po; type: functional
# Mus musculus [3] = test: Antiinflammatory activity in mouse assessed as inhibition of paw edema after 24 hrs; type: functional; parameters: scale not given: the % may be the effect or the level left
# CHO-K1 = test: Cytotoxicity against CHO-K1 cells by MTT assay; type: toxicity, cell-based, Cricetulus griseus; parameters: concentration or dose not given beside the values; details: chinese hamster
# [4] = Inhibition of Hepatitis C virus NS3 protease; type: functional, Hepacivirus hominis
# Mus musculus [5] = test: Antiinflammatory activity in mouse assessed as inhibition of paw edema after 4 hrs; type: functional; parameters: scale not given: the % may be the effect or the level left
# [6] = target: T1, liver carboxylesterase (CES) (Sus scrofa, UniProt Q29550); test: Inhibition of pig liver CES at 20 uM relative to control; type: tissue-based
# T1 sequence (Q29550 whole entry): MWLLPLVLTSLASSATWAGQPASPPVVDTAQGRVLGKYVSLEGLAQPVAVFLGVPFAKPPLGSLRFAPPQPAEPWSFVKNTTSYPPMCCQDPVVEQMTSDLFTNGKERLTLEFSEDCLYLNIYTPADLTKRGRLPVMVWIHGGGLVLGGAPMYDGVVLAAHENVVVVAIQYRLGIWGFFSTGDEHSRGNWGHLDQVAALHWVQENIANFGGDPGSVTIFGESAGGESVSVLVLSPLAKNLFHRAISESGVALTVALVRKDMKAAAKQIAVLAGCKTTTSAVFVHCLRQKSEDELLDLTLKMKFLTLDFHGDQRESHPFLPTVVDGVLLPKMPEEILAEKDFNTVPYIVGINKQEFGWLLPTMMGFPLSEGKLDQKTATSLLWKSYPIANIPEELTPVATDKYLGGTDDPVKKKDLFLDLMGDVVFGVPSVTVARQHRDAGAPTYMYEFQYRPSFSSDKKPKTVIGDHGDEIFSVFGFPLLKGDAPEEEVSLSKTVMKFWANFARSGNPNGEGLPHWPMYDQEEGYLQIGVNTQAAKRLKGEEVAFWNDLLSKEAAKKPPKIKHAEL
# [7] = Antioxidant activity assessed as ABTS radical scavenging activity; type: functional
# Rattus norvegicus [8] = test: Analgesic activity in Sprague-Dawley rat at 15 mg/kg after 1 hr by hot plate test; type: functional
# Rattus norvegicus [9] = test: Analgesic activity in Sprague-Dawley rat at 15 mg/kg after 2 hrs by hot plate test; type: functional
# Staphylococcus aureus [10] = test: Antibacterial activity against Staphylococcus aureus assessed as zone of inhibition at 5 mg/ml; type: functional; details: read-out: IZ
# Androgen receptor = target: T2, Androgen receptor (Homo sapiens, UniProt P10275); test: Antagonist activity at androgen receptor (unknown origin)
# T2 sequence (P10275 whole entry): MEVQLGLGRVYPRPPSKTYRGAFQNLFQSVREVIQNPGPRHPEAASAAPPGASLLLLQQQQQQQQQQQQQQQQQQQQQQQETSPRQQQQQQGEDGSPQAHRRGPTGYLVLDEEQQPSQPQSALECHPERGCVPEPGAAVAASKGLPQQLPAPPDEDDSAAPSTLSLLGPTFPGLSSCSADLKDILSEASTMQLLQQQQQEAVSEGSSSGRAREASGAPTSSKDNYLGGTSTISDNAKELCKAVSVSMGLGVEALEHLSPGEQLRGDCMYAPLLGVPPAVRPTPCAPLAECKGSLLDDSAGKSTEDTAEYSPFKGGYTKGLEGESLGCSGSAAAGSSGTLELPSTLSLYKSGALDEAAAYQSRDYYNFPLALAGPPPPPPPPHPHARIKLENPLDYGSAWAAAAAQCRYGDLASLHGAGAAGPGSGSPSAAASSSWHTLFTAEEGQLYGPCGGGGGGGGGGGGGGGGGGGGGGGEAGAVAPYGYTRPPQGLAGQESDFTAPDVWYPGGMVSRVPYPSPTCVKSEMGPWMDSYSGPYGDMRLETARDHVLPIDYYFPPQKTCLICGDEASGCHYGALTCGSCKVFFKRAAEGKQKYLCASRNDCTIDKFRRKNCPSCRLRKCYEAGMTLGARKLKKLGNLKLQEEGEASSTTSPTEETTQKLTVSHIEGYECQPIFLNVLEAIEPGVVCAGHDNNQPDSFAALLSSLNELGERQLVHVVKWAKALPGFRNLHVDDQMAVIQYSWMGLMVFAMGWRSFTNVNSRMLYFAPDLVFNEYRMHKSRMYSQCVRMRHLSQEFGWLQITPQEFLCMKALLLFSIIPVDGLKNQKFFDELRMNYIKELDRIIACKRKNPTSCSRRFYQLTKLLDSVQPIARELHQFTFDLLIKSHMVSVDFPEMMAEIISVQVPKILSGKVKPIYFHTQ
# Staphylococcus aureus [11] = test: Antibacterial activity against Staphylococcus aureus assessed as zone of inhibition; type: functional
# Escherichia coli [12] = test: Antibacterial activity against Escherichia coli assessed as zone of inhibition; type: functional
# Bacillus subtilis [13] = test: Antibacterial activity against Bacillus subtilis assessed as zone of inhibition; type: functional
# Pseudomonas aeruginosa [14] = test: Antibacterial activity against Pseudomonas aeruginosa assessed as zone of inhibition; type: functional
# Bacillus subtilis [15] = test: Antibacterial activity against Bacillus subtilis; type: functional
# Staphylococcus aureus [16] = test: Antibacterial activity against Staphylococcus aureus; type: functional
# Escherichia coli [17] = test: Antibacterial activity against Escherichia coli; type: functional
# Pseudomonas aeruginosa [18] = test: Antibacterial activity against Pseudomonas aeruginosa; type: functional
# Aspergillus niger = test: Antifungal activity against Aspergillus niger; type: functional
# HEK293 = test: Cytotoxicity against HEK293 cells; type: functional, Homo sapiens
# Escherichia coli [19] = test: Antibacterial activity against Escherichia coli assessed as zone of inhibition at 5 mg/ml; type: functional; details: read-out: IZ
# SiHa = test: Cytotoxicity against human SiHa cells by MTT assay; type: functional, cell-based
# A549 = test: Cytotoxicity against human A549 cells by MTT assay; type: functional, cell-based
# Aspergillus clavatus = test: Antifungal activity against Aspergillus clavatus; type: functional
smiles,measurement,setting,value
CN1C(=O)CN=C(c2ccccc2)c2cc(Cl)ccc21 [DIAZEPAM],Activity,Mus musculus [1],171.6%
same,Activity,Mus musculus [2],171.6
CC(=O)c1cnc2c(C(=O)Nc3c(C)n(C)n(-c4ccccc4)c3=O)cnn2c1C,Activity,Mus musculus [3],16.57%
same,Activity,CHO-K1,72.46%
CC(C)OC(=O)[C@H](C)N[P@](=O)(OC[C@H]1O[C@@H](n2ccc(=O)[nH]c2=O)[C@](C)(F)[C@@H]1O)Oc1ccccc1 [SOFOSBUVIR],IC50,[4],3.2 µg/mL
CC(C)Cc1ccc(C(C)C(=O)O)cc1 (configuration not stated) [IBUPROFEN],Activity,Mus musculus [5],66.67%
CC1=Nc2cc(-c3ccccc3)nn2C(=O)/C1=N\Nc1ccc(C)cc1,inhibition at 20 µM,[6],22.8%
same,Activity,[7],0.21 µM
same,Activity,Rattus norvegicus [8],43.9%
same,Activity,Rattus norvegicus [9],65.9%
Nc1nc2c(/N=N/c3ccc(C(F)(F)F)cc3)c(N)nn2c(N)c1/N=N/c1ccc(F)cc1,zone of inhibition at 5000 µg/mL,Staphylococcus aureus [10],10 mm
Cc1ccc(C2CC(C(F)(F)F)n3nc(C(N)=O)cc3N2)cc1 (configuration not stated),IC50,Androgen receptor,45.8 µM
NC(=O)c1c(Nc2ccccc2)nn2c(-c3ccccc3)ccnc12,inhibition zone (IZ),Staphylococcus aureus [11],10 mm
same,inhibition zone (IZ),Escherichia coli [12],7 mm
same,inhibition zone (IZ),Bacillus subtilis [13],12 mm
same,inhibition zone (IZ),Pseudomonas aeruginosa [14],9 mm
same,MIC,Bacillus subtilis [15],3.9 µg/mL
same,MIC,Staphylococcus aureus [16],7.81 µg/mL
same,MIC,Escherichia coli [17],15.6 µg/mL
same,MIC,Pseudomonas aeruginosa [18],7.81 µg/mL
same,MIC,Aspergillus niger,15.6 µg/mL
Clc1ccc(-c2cc3nccc(-c4ccc(Cl)cc4)n3n2)cc1,Activity,HEK293,44.2%
Nc1nc2c(/N=N/c3ccc(F)cc3)c(N)nn2c(N)c1/N=N/c1ccc(F)cc1,zone of inhibition at 5000 µg/mL,Escherichia coli [19],10 mm
COc1ccc(-c2cc(-c3nn4cc(-c5ccncc5)cnc4c3S(=O)(=O)c3cc([N+](=O)[O-])c(OC)c([N+](=O)[O-])c3)on2)cc1,IC50,SiHa,0.08 µM
same,IC50,A549,0.054 µM
COc1ccc(C2CC(C(F)(F)F)n3nc(-c4ccc(C(=O)O)cc4)cc3N2)cc1OC (configuration not stated),IC50,Androgen receptor,23.4 µM
N#C/C(=C/c1ccc(Cl)cc1)c1nn2c(-c3cccs3)cc(C(F)(F)F)nc2c1C#N,IC50,[4],7.33 µg/mL
Cc1ccc(-n2cnc3c(cnn3-c3cc(C)nc4c(C#N)cnn34)c2=O)cc1,inhibition zone (IZ),Escherichia coli [12],12.2 mm
same,inhibition zone (IZ),Bacillus subtilis [13],14 mm
same,MIC,Aspergillus niger,10 µg/mL
same,MIC,Aspergillus clavatus,10 µg/mL
CC1(C2CC(C(F)(F)F)n3nc(C(=O)O)cc3N2)CC1 (configuration not stated),IC50,Androgen receptor,214 µM
